Results: patent publication US9199979B2, “Thiazolylphenyl-benzenesulfonamido derivatives as kinase inhibitors” (NERVIANO MEDICAL SCIENCES S.R.L., priority 2011, dated 2015)

Key:
Type in all cases: cell-based
[1] = test system: human melanoma cells A375 (with a mutated B-Raf); test: In vitro cell proliferation assay, A375; settings: A-375, 72 h treatment, cellular ATP readout
Procedure: (§1) Exponentially growing human melanoma cells A375 (with a mutated B-Raf) and human melanoma cells Mewo (with wild-type B-Raf) were seeded and incubated at 37° C. in a humidified 5% CO2 atmosphere. After 24 h, scalar doses of the compound were added to the medium and cells incubated for 72 h. At the end of treatment, cells were washed and counted. Cell number was determined by a cellular adenosine triphosphate monitoring system. Cell proliferation was compared to control cells and the concentration inhibiting cell growth by 50% was calculated.

[2] = test system: human melanoma cells Mewo (with wild-type B-Raf); test: In vitro cell proliferation assay, Mewo; settings: 72 h treatment, cellular ATP readout
Procedure: as §1

[3] = test system: p-MAPK (T202/Y204) in A375 human melanoma cells, having a mutated B-Raf; test: p-MAPK (T202/Y204) ArrayScan assay; settings: A-375, 1.5 or 2 h treatment, p-MAPK staining, read-out: Array Scan A375 IC50
Procedure: A375 human melanoma cells, having a mutated B-Raf, were seeded in 384-well poly-lysine coated plates (Matrix) at a density of 1000 cells/well with appropriate medium supplemented with 10% FCS and incubated for 16-24 h. Cells were treated for 1.5 or 2 h with increasing doses of compounds (starting dose 10 μM, dilution factor 2.5). At the end of the treatment cells were fixed with p-formaldehyde 3.7% for 15-30 min, then washed twice with D-PBS (80 μL/well) and permeabilized with D-PBS containing 0.1% Triton X-100 and 1% BSA (Sigma-Aldrich) for 15 min at room temperature (staining solution). Anti-phospho-MAPK (T202/Y204) monoclonal antibody E10 (Cell Signaling, cat. #9106) diluted 1:100 was added in staining solution and incubated for 1 h at 37° C. After removal of the primary antibody solution, the anti-mouse Cy™ 2-conjugated (Green) secondary antibody (Amersham) diluted 1:500 in staining solution containing 2 μg/mL DAPI was added. The plate was incubated for 1 h at 37° C., washed twice and then read with Cellomics' ArrayScan VTI (4 fields/well, CytoNucTrans algorithm).
The parameter “MEAN_RingAvgIntenCh2”, which measures the mean cytoplasmatic fluorescence intensity associated to p-MAPK staining, is reported as the final result.

Compound | IC50 [1] [nM] | IC50 [2] [nM] | IC50 [3] [nM]
CCN(CC)c1nc(-c2c(F)ccc(NS(=O)(=O)c3cc(F)ccc3F)c2F)c(-c2ccncc2)s1 [cmpd. 3, N-{3-[2-(diethylamino)-5-(pyridin-4-yl)-1,3-thiazol-4-yl]-2,4-difluorophenyl}-2,5-difluorobenzenesulfonamide] | 166 | > 10000 | 1
O=S(=O)(Nc1ccc(F)c(-c2nc(N3CCC(F)(F)CC3)sc2-c2ccncc2)c1F)c1cc(F)ccc1F [cmpd. 14, N-{3-[2-(4,4-difluoropiperidin-1-yl)-5-(pyridin-4-yl)-1,3-thiazol-4-yl]-2,4-difluorophenyl}-2,5-difluorobenzenesulfonamide] | 66 | > 10000 | 4
O=S(=O)(Nc1cccc(-c2nc(N3CCC(F)(F)CC3)sc2-c2ccncc2)c1F)c1cc(F)ccc1F [cmpd. 18, N-{3-[2-(4,4-difluoropiperidin-1-yl)-5-(pyridin-4-yl)-1,3-thiazol-4-yl]-2-fluorophenyl}-2,5-difluorobenzenesulfonamide] | 127 | > 10000 | 2
CN1CCC(c2nc(-c3cccc(NS(=O)(=O)c4cc(F)ccc4F)c3F)c(-c3ccncc3)s2)CC1 [cmpd. 19, 2,5-difluoro-N-{2-fluoro-3-[2-(1-methylpiperidin-4-yl)-5-(pyridin-4-yl)-1,3-thiazol-4-yl]phenyl}benzenesulfonamide] | 40 | > 10000 | 2
O=S(=O)(Nc1cccc(-c2nc(C3CCN(C4CC4)CC3)sc2-c2ccncc2)c1F)c1cc(F)ccc1F [cmpd. 21, N-{3-[2-(1-cyclopropylpiperidin-4-yl)-5-(pyridin-4-yl)-1,3-thiazol-4-yl]-2-fluorophenyl}-2,5-difluorobenzenesulfonamide] | 23 | > 10000 | –
Nc1cc(-c2sc(C3CCN(C4CC4)CC3)nc2-c2cccc(NS(=O)(=O)c3cc(F)ccc3F)c2F)ccn1 [cmpd. 22, N-{3-[5-(2-aminopyridin-4-yl)-2-(1-cyclopropylpiperidin-4-yl)-1,3-thiazol-4-yl]-2-fluorophenyl}-2,5-difluorobenzenesulfonamide] | 27 | > 10000 | –
CC(=O)Nc1cc(-c2sc(C3CCN(C)CC3)nc2-c2cccc(NS(=O)(=O)c3cc(F)ccc3F)c2F)ccn1 [cmpd. 23, N-{4-[4-(3-{[(2,5-difluorophenyl)sulfonyl]amino}-2-fluorophenyl)-2-(1-methylpiperidin-4-yl)-1,3-thiazol-5-yl]pyridin-2-yl}acetamide] | 6 | > 10000 | –
CNc1cc(-c2sc(C3CCOCC3)nc2-c2cccc(NS(=O)(=O)c3cc(F)ccc3F)c2F)ccn1 [cmpd. 25, 2,5-difluoro-N-(2-fluoro-3-{5-[2-(methylamino)pyridin-4-yl]-2-(tetrahydro-2H-pyran-4-yl)-1,3-thiazol-4-yl}phenyl)benzenesulfonamide] | 32 | > 10000 | –
CC(=O)Nc1cc(-c2sc(C3CCN(C4CC4)CC3)nc2-c2cccc(NS(=O)(=O)c3cc(F)ccc3F)c2F)ccn1 [cmpd. 30, N-{4-[2-(1-cyclopropylpiperidin-4-yl)-4-(3-{[(2,5-difluorophenyl)sulfonyl]amino}-2-fluorophenyl)-1,3-thiazol-5-yl]pyridin-2-yl}acetamide] | 3 | > 10000 | –
CC(=O)NCCNc1cc(-c2sc(C3CCOCC3)nc2-c2cccc(NS(=O)(=O)c3cc(F)ccc3F)c2F)ccn1 [cmpd. 36, N-[2-({4-[4-(3-{[(2,5-difluorophenyl)sulfonyl]amino}-2-fluorophenyl)-2-(tetrahydro-2H-pyran-4-yl)-1,3-thiazol-5-yl]pyridin-2-yl}amino)ethyl]acetamide] | 69 | > 10000 | –
CNc1cc(-c2sc(C3CCN(C4CC4)CC3)nc2-c2cccc(NS(=O)(=O)c3cc(F)ccc3F)c2F)ccn1 [cmpd. 37, N-(3-{2-(1-cyclopropylpiperidin-4-yl)-5-[2-(methylamino)pyridin-4-yl]-1,3-thiazol-4-yl}-2-fluorophenyl)-2,5-difluorobenzenesulfonamide] | 92 | > 10000 | –
CNc1cc(-c2sc(C3CCN(C)CC3)nc2-c2cccc(NS(=O)(=O)c3cc(F)ccc3F)c2F)ccn1 [cmpd. 38, 2,5-difluoro-N-(2-fluoro-3-{5-[2-(methylamino)pyridin-4-yl]-2-(1-methylpiperidin-4-yl)-1,3-thiazol-4-yl}phenyl)benzenesulfonamide] | 47 | > 10000 | –
COC(=O)N[C@@H](C)CNc1cc(-c2sc(C3CCOCC3)nc2-c2cccc(NS(=O)(=O)c3cc(F)ccc3F)c2F)ccn1 [cmpd. 41, Methyl [(2S)-1-({4-[4-(3-{[(2,5-difluorophenyl)sulfonyl]amino}-2-fluorophenyl)-2-(tetrahydro-2H-pyran-4-yl)-1,3-thiazol-5-yl]pyridin-2-yl}amino)propan-2-yl]carbamate] | 8 | > 10000 | –

The next lines start with the values.

IC50 [1] [nM] | IC50 [2] [nM] | IC50 [3] [nM] | Compound
78 | > 10000 | 2 | O=S(=O)(Nc1cccc(-c2nc(C3CCOCC3)sc2-c2ccncc2)c1F)c1cc(F)ccc1F [cmpd. 20, 2,5-difluoro-N-{2-fluoro-3-[5-(pyridin-4-yl)-2-(tetrahydro-2H-pyran-4-yl)-1,3-thiazol-4-yl]phenyl}benzenesulfonamide]
15 | > 10000 | – | Nc1cc(-c2sc(C3CCOCC3)nc2-c2cccc(NS(=O)(=O)c3cc(F)ccc3F)c2F)ccn1 [cmpd. 24, N-{3-[5-(2-aminopyridin-4-yl)-2-(tetrahydro-2H-pyran-4-yl)-1,3-thiazol-4-yl]-2-fluorophenyl}-2,5-difluorobenzenesulfonamide]
0.6 | > 10000 | – | CC(=O)Nc1cc(-c2sc(C3CCOCC3)nc2-c2cccc(NS(=O)(=O)c3cc(F)ccc3F)c2F)ccn1 [cmpd. 35, N-{4-[4-(3-{[(2,5-difluorophenyl)sulfonyl]amino}-2-fluorophenyl)-2-(tetrahydro-2H-pyran-4-yl)-1,3-thiazol-5-yl]pyridin-2-yl}acetamide]
27 | > 10000 | – | CN1CCC(c2nc(-c3cccc(NS(=O)(=O)c4cc(F)ccc4F)c3F)c(-c3ccnc(N)c3)s2)CC1 [cmpd. 39, N-{3-[5-(2-aminopyridin-4-yl)-2-(1-methylpiperidin-4-yl)-1,3-thiazol-4-yl]-2-fluorophenyl}-2,5-difluorobenzenesulfonamide]
0.6 | > 10000 | – | CC(=O)Nc1cc(-c2sc(C(C)(C)C)nc2-c2cccc(NS(=O)(=O)c3cc(F)ccc3F)c2F)ccn1 [cmpd. 42, N-{4-[2-tert-butyl-4-(3-{[(2,5-difluorophenyl)sulfonyl]amino}-2-fluorophenyl)-1,3-thiazol-5-yl]pyridin-2-yl}acetamide]
12 | > 10000 | – | CC(C)(C)c1nc(-c2cccc(NS(=O)(=O)c3cc(F)ccc3F)c2F)c(-c2ccncc2)s1 [cmpd. 43, N-{3-[2-tert-butyl-5-(pyridin-4-yl)-1,3-thiazol-4-yl]-2-fluorophenyl}-2,5-difluorobenzenesulfonamide]
40 | > 10000 | – | CC(=O)Nc1cc(-c2sc(C3CCNCC3)nc2-c2cccc(NS(=O)(=O)c3cc(F)ccc3F)c2F)ccn1 [cmpd. 44, N-{4-[4-(3-{[(2,5-difluorophenyl)sulfonyl]amino}-2-fluorophenyl)-2-(piperidin-4-yl)-1,3-thiazol-5-yl]pyridin-2-yl}acetamide]
